Data as given in ChEMBL document CHEMBL5518249, “Structure-Guided Discovery and Preclinical Assessment of Novel (Thiophen-3-yl)aminopyrimidine Derivatives as Potent ERK1/2 Inhibitors” (J Med Chem, 2024).

How the values were obtained:
MDA-MB-231 [1] = experiment: cells; details: Homo sapiens, MDA-MB-231, 24 h
Description: Antiproliferative activity against human MDA-MB-231 cells assessed as cell viability incubated for 24 hrs by methyl thiazolyl tetrazolium (MTT) assay

RKO [2] = experiment: cells; details: Homo sapiens, 24 h
Description: Antiproliferative activity against human RKO cells assessed as cell viability incubated for 24 hrs by methyl thiazolyl tetrazolium (MTT) assay

[3] = target: Mitogen-activated protein kinase 3 (Homo sapiens, UniProt P27361)
Description: Inhibition of ERK1 (unknown origin) assessed as luminescence in presence of ATP incubated for 90 mins by ADP-Glo kinase assay

MDA-MB-231 [4] = experiment: animal or person; assay type: functional, Homo sapiens; details: Mus musculus, MDA-MB-231, po, 360 h, route ig, time 15 day, read-out: TGI
Description: In vivo antitumor activity against human MDA-MB-231 cells xenografted in BALB/c mouse model assessed as tumor growth inhibition at 50 mg/kg, IG once daily for 15 days relative to control

RKO [5] = experiment: animal or person; assay type: functional, Homo sapiens; details: Mus musculus, po, 360 h, route ig, time 15 day, read-out: TGI
Description: In vivo antitumor activity against human RKO cells xenografted in BALB/c mouse model assessed as tumor growth inhibition at 50 mg/kg, IG once daily for 15 days relative to control

Sequence of Mitogen-activated protein kinase 3 (P27361 whole entry): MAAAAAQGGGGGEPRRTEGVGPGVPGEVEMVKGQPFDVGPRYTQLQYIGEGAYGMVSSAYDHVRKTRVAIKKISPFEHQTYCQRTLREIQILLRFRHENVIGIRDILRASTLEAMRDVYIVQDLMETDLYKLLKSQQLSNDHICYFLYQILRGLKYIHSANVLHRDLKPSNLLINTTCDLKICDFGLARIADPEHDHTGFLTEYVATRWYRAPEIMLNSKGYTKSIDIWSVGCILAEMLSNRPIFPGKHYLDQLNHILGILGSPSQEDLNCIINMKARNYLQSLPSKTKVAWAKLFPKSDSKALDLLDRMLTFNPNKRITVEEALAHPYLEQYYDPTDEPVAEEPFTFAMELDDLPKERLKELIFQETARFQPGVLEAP

IC50 (MDA-MB-231 [1]) | IC50 (RKO [2]) | IC50 [3] | Compound | inhibition in vivo at 50 mg/kg (MDA-MB-231 [4]) | inhibition in vivo at 50 mg/kg (RKO [5])
11.5 µM | 12.6 µM | – | Cn1nccc1Nc1ncc(Cl)c(-c2csc(C(=O)NCc3ccc(Cl)c(F)c3)c2)n1 | – | –
39.4 µM | 41.2 µM | – | Cn1nccc1Nc1ncc(Cl)c(-c2csc(C(=O)NCc3ccc(C(F)(F)F)cc3)c2)n1 | – | –
> 50 µM | > 50 µM | – | Cn1nccc1Nc1ncc(Cl)c(-c2csc(C(=O)NCc3ccccc3F)c2)n1 | – | –
12.4 µM | 10.2 µM | – | Cn1nccc1Nc1ncc(Cl)c(-c2csc(C(=O)NCc3ccc(Cl)c(Cl)c3)c2)n1 | – | –
21.1 µM | 24.5 µM | – | Cn1nccc1Nc1ncc(Cl)c(-c2csc(C(=O)NCc3cccc(C(F)(F)F)c3)c2)n1 | – | –
6.26 µM | 5.41 µM | – | Cc1cnccc1Nc1ncc(Cl)c(-c2csc(C(=O)NCc3ccc(F)c(Cl)c3)c2)n1 | – | –
36.6 µM | 20.2 µM | – | Cn1cc(Nc2ncc(Cl)c(-c3csc(C(=O)NCc4ccc(F)c(Cl)c4)c3)n2)cn1 | – | –
15.8 µM | 14.5 µM | – | Cn1nccc1Nc1ncc(Cl)c(-c2csc(C(=O)NCc3ccc(F)cc3)c2)n1 | – | –
> 50 µM | > 50 µM | – | Cn1nccc1Nc1ncc(Cl)c(-c2csc(C(=O)NCc3ccccc3Br)c2)n1 | – | –
39.4 µM | 50.6 µM | – | Cn1nccc1Nc1ncc(Cl)c(-c2csc(C(=O)NCCN3CCOCC3)c2)n1 | – | –
> 50 µM | > 50 µM | – | Cn1nccc1Nc1ncc(Cl)c(-c2csc(C(=O)NCc3ccc(F)cc3F)c2)n1 | – | –
> 50 µM | 49.4 µM | – | Cn1ccc(Nc2ncc(Cl)c(-c3csc(C(=O)NCc4ccc(F)c(Cl)c4)c3)n2)n1 | – | –
48.2 µM | 39 µM | – | Cn1nccc1Nc1ncc(Cl)c(-c2csc(C(=O)NCc3ccc(Cl)cc3F)c2)n1 | – | –
> 50 µM | > 50 µM | – | Cn1nccc1Nc1ncc(Cl)c(-c2csc(C(=O)NCc3cccc(Br)c3)c2)n1 | – | –
– | – | 0.0254 µM | Cn1nccc1Nc1ncc(Cl)c(-c2csc(C(=O)NC3CCOCC3)c2)n1 | – | –
> 50 µM | > 50 µM | – | Cn1cc(Nc2ncc(Cl)c(-c3csc(C(=O)NCc4ccc(F)c(Cl)c4)c3)n2)c(C(F)(F)F)n1 | – | –
29.4 µM | 33.4 µM | – | COc1cccc(CNC(=O)c2cc(-c3nc(Nc4ccnn4C)ncc3Cl)cs2)c1 | – | –
> 50 µM | > 50 µM | – | COc1ccccc1CNC(=O)c1cc(-c2nc(Nc3ccnn3C)ncc2Cl)cs1 | – | –
– | – | – | CC(C)Nc1cc(-c2c[nH]c(C(=O)N[C@H](CO)c3cccc(Cl)c3)c2)c(Cl)cn1 [ULIXERTINIB] | 39.3% | 47.4%
